From patent US9896454B2, “Microbiocidal heterobicyclic derivatives” (Syngenta Participations AG, priority 2014, dated 2018)

Row | Structure (SMILES) | melting point
1 | CC1(C)N=C(c2cnc3cccn3c2)c2cccc(F)c2C1(C)C [E 2, 5-fluoro-3,3,4,4-tetramethyl-1-pyrrolo[1,2-a]pyrimidin-3-yl-isoquinoline] | 130 to 134 °C
2 | CC1(C)N=C(c2cnc3nccn3c2)c2cccc(F)c2C1(C)C [E 27] | 240 to 242 °C
3 | CC1(C)N=C(c2cnc3c(Br)cc(Br)n3c2)c2cccc(F)c2C1(C)C [E 39] | 141 to 143 °C
4 | CC1(C)N=C(c2cnc3nc(Br)cn3c2)c2cccc(F)c2C1(C)C [E 31] | 134 to 136 °C
5 | Cc1nn2cc(C3=NC(C)(C)C(C)(C)c4c(F)cccc43)cnc2c1C [E 25] | 136 to 139 °C
6 | CC1(C)N=C(c2cnc3ccc(Br)n3c2)c2cccc(F)c2C1(C)C [E 4] | 166 to 167 °C
7 | Cc1nn2cc(C3=NC(C)(C)C(C)(C)c4c(F)cccc43)cnc2c1Br [E 13] | 132 to 134 °C
8 | Cc1nn2cc(C3=NC(C)(C)C(C)(C)c4c(F)cccc43)cnc2c1C#N [E 23] | 176 to 178 °C
9 | COc1ccc2ncc(C3=NC(C)(C)C(C)(C)c4c(F)cccc43)cn12 [E 1] | 120 to 122 °C
10 | Cc1cc2ncc(C3=NC(C)(C)C(C)(C)c4c(F)cccc43)cn2n1 [E 12] | 180 to 190 °C
11 | CSc1nn2cc(C3=NC(C)(C)C(C)(C)c4c(F)cccc43)cnc2c1C#N [E 20] | 112 to 114 °C

The next lines start with the values.

Row | melting point | Structure (SMILES)
12 | 179 to 182 °C | CC1(C)N=C(c2cnc3c(C#N)cnn3c2)c2cccc(F)c2C1(C)C [E 16]
13 | 227 to 229 °C | CC1(C)Cc2c(F)cccc2C(c2cnc3nccn3c2)=N1 [E 28]
14 | 135 to 138 °C | Cc1cnn2cc(C3=NC(C)(C)C(F)(F)c4c(F)cccc43)cnc12 [E 22]
15 | 201 to 203 °C | CC1(C)N=C(c2cnc3c(Br)cnn3c2)c2cccc(F)c2C1=O [E 19, 1-(3-bromopyrazolo[1,5-a]pyrimidin-6-yl)-5-fluoro-3,3-dimethyl-isoquinolin-4-one]
16 | 159 to 160 °C | CC1(C)Cc2c(F)cccc2C(c2cnc3ccnn3c2)=N1 [E 9]
17 | 215 to 217 °C | CC1(C)N=C(c2cnc3c(C#N)cnn3c2)c2cccc(F)c2C1(F)F [E 24, 6-(4,4,5-trifluoro-3,3-dimethyl-1-isoquinolyl)pyrazolo[1,5-a]pyrimidine-3-carbonitrile]
18 | 164 to 166 °C | CC1(C)N=C(c2cnc3c(Br)cnn3c2)c2cccc(F)c2C1(F)F [E 21, 1-(3-bromopyrazolo[1,5-a]pyrimidin-6-yl)-4,4,5-trifluoro-3,3-dimethyl-isoquinoline]
19 | 58 to 61 °C | CC1(C)N=C(c2cnc3c(Br)cnn3c2)c2cccc(F)c2C1(C)C [E 14]
20 | 105 °C | CC1(C)Cc2c(Cl)cccc2C(c2cnc3ccnn3c2)=N1 [E 10]
21 | 121 to 123 °C | CC1(C)Cc2c(F)cccc2C(c2cnc3c(Br)cnn3c2)=N1 [E 17, 1-(3-bromopyrazolo[1,5-a]pyrimidin-6-yl)-5-fluoro-3,3-dimethyl-4H-isoquinoline]
22 | 198 to 200 °C | CC1(C)N=C(c2cnc3c(F)cnn3c2)c2cccc(F)c2C1(C)C [E 26]
23 | 157 to 158 °C | Cc1cccc2c1CC(C)(C)N=C2c1cnc2nccn2c1 [E 30]
24 | 126 to 128 °C | Cc1cnn2cc(C3=NC(C)(C)C(C)(C)c4c(F)cccc43)cnc12 [E 15]
